From paper doi:10.1101/2024.12.16.628703v1 (bioRxiv, 2024)
Marks after values point to notes of the source that are not given here.

Assays:
G. oceanica = test: CPP translocation by flow cytometry; assay type: cell-based, Gephyrocapsa oceanica; details: for increase in median fluorescence per increase in concentration of 1 µM: regression of titer data, FITC-positive population; for increase in median fluorescence per increase in concentration of 1 µM / regression equation, Median Fluorescence versus CPP concentration: separate experiment; for regression equation, Median Fluorescence versus CPP concentration: titer data 20-320 µM, flow cytometry ex 488 / em 525 nm
I. galbana [1] = test: CPP translocation by flow cytometry; assay type: cell-based, Isochrysis galbana; details: for translocation (FITC-positive cells) / percentage of cells penetrated (FITC-positive): DOE, trypsin wash; for translocation (FITC-positive cells): FITC-Ahx-CPP 2 µM; for translocation (FITC-positive cells) / percentage of cells penetrated (FITC-positive) / FITC-positive cells achieved over the range tested / FITC-positive cells: flow cytometry; for percentage of cells penetrated (FITC-positive): FITC-Ahx-CPP 10 µM; for FITC-positive cells achieved over the range tested / FITC-positive cells: titer experiment, single experiment; for FITC-positive cells achieved over the range tested: 20 to 320 µM CPP
E. huxleyi = test: CPP translocation by flow cytometry; assay type: cell-based, Emiliania huxleyi; details: for FITC-positive cells / FITC-positive cells achieved over the range tested: titer experiment, flow cytometry, average of 2 experiments; for FITC-positive cells achieved over the range tested: 20 to 320 µM CPP
I. galbana [2] = test: Viability / cell proliferation after CPP transfection; assay type: cell-based, Isochrysis galbana; details: growth curve 14 days
algae = details: ref [7],[8],[23]; cited from earlier work
animal cells = details: ref [7],[8],[23]; cited from earlier work
[3] = titer data 20-320 µM, separate experiment, flow cytometry ex 488 / em 525 nm

| Sequence | increase in median fluorescence per increase in concentration of 1 µM (G. oceanica) [RFU] | regression equation, Median Fluorescence versus CPP concentration (G. oceanica) | translocation (FITC-positive cells) (I. galbana [1]) | percentage of cells penetrated (FITC-positive) (I. galbana [1]) | FITC-positive cells achieved over the range tested (I. galbana [1]) [%] | FITC-positive cells (E. huxleyi; 20 µM CPP) | FITC-positive cells (E. huxleyi; 160 µM CPP) | FITC-positive cells (E. huxleyi; 320 µM CPP) | FITC-positive cells achieved over the range tested (E. huxleyi) | other results |
| --- | --- | --- | --- | --- | --- | --- | --- | --- | --- | --- |
| GRKKRRQRRRPPQ [TAT, transactivating transcriptional activator] | 53 | 10953 + 52.48 * TAT concentration | do not translocate | do not translocate | < 20 | less than 20% | over 40% | over 60% | < 80% | regression equation, Median Fluorescence versus CPP concentration (I. galbana [1]; [3]): 16534 + 11.73 * TAT concentration; regression equation, Median Fluorescence versus CPP concentration (E. huxleyi; [3]): 15145 + 35.47 * TAT concentration |
| LLIILRRRIRKQAHAHSK [pVEC, murine vascular endothelial cadherin] | 184 | 16133 + 184.1 * pVEC concentration | – | 39% | 80 | > 80% | more than 90% | over 95% | more than 80% | optimal concentration for translocation, irrespective of viability (G. oceanica; titer experiment 20-320 µM): 160 µM; percent-positive achieved over the range tested (G. oceanica; titer experiment, 20 to 320 µM CPP, flow cytometry, average of 2 experiments): more than 80%; proliferation of cells sorted for high FITC fluorescence (I. galbana [2]; 160 and 320 µM pVEC, sorted by FACS): proliferation of viable cells; viability after CPP treatment (I. galbana [2]; pVEC at 20 µM, sorted cells): apparent decrease in viability; optimal concentration for translocation, irrespective of viability (I. galbana [1]; titer experiment 20-320 µM): 80 µM; FITC-positive cells (I. galbana [1]; 20 µM CPP): less than 20%; FITC-positive cells (I. galbana [1]; 80 µM CPP): over 90%; FITC-positive cells (I. galbana [1]; 160 µM CPP): approximately 85%; effect on median fluorescence with rising concentration (E. huxleyi; titer experiment 20-320 µM): reaches a plateau from 160 to 320 µM; optimal concentration for translocation, irrespective of viability (E. huxleyi; titer experiment 20-320 µM): 160 µM |
| RQIKIWFQNRRMKWKK [pAntp, antennapedia homeodomain] | – | – | do not translocate | – | – | – | – | – | – | cytotoxicity at concentrations as low as (algae): 10 µM; cytotoxicity at concentrations as low as (animal cells): 40 µM |
